In patent publication US6545049B1, “Dimer-selective RXR modulators and methods for their use” (Ligand Pharmaceuticals Incorporated, priority 1995, dated 2003):
“Also recorded” adds a separate entry of the source. Where two headings read alike, the source gives them in different places.

Legend:
[1] = target: T1, RXRα (Homo sapiens, UniProt P19793); test: RXR binding, RXRα; conditions: -v- tritiated LGD1069 and tritiated 9-cis retinoic acid
T1 sequence (P19793 1-462): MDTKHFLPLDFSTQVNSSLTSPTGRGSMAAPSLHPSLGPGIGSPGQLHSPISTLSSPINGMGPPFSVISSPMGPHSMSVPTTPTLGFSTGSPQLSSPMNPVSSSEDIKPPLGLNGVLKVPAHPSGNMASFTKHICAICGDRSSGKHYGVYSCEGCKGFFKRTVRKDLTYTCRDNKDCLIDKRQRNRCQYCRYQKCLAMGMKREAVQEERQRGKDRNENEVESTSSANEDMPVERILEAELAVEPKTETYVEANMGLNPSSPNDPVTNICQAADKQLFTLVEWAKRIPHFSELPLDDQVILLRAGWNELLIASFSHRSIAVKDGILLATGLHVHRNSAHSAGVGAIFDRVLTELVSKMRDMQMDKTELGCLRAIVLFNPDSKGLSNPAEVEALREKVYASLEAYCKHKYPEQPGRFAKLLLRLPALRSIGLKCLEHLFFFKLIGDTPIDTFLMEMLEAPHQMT
Protocol: (§1) Non-specific binding was defined as that binding remaining in the presence of 500 nM of the appropriate unlabelled compound. At the end of the incubation period, bound from free ligand were separated. The amount of bound tritiated retinoids was determined by liquid scintillation counting of an aliquot (700 μL) of the supernatant fluid or the hydroxylapatite pellet.
(§2) After correcting for non-specific binding, IC50 values were determined. […] The IC50 value was determined graphically from a log-logit plot of the data. The Kd values were determined by application of the Cheng-Prussof equation to the IC50 values, the labeled ligand concentration and the Kd of the labeled ligand.

[2] = target: T2, RXRβ (Mus musculus, UniProt P28704); test: RXR binding, RXRβ; conditions: -v- tritiated LGD1069 and tritiated 9-cis retinoic acid
T2 sequence (P28704 1-520): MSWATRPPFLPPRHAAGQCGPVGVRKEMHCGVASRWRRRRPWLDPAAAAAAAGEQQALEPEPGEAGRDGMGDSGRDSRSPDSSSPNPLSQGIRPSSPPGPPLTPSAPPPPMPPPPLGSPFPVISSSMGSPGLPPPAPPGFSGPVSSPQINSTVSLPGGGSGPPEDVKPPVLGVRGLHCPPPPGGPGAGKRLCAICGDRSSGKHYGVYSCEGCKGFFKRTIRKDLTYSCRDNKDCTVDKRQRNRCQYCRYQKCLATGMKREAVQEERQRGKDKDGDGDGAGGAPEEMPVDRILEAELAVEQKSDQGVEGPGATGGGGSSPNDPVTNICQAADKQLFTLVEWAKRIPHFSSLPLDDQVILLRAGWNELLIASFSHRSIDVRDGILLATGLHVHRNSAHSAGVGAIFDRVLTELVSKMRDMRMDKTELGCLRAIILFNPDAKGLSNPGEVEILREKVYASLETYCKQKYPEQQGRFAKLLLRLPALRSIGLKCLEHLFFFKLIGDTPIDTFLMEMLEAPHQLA
Protocol: as §1, §2

[3] = target: T3, RXRγ (Mus musculus, UniProt P28705); test: RXR binding, RXRγ; conditions: -v- tritiated LGD1069 and tritiated 9-cis retinoic acid
T3 sequence (P28705 1-463): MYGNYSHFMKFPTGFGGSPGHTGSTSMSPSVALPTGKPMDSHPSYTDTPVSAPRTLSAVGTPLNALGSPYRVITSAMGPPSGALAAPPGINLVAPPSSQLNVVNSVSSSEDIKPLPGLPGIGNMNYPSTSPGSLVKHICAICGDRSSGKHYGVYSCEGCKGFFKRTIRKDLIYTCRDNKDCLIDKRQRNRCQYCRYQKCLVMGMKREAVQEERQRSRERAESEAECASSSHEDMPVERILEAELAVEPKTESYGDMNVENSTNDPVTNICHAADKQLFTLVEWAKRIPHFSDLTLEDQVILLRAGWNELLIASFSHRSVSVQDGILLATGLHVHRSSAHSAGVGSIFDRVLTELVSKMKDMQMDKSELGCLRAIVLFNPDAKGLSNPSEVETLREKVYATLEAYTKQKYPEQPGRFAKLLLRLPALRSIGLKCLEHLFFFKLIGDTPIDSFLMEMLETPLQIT
Protocol: as §1, §2

[4] = target: T4, RXR:RXR homodimer (Homo sapiens, UniProt P19793); test: RXR homodimer co-transfection assay (FIG. 1); conditions: in the presence of known RXR activators (LGD1069, LG100268, 9-cis retinoic acid)
T4 sequence (P19793 1-462): T1 sequence (P19793 1-462)

[5] = target: T1, RXRα; test: RXR homodimer co-transfection assay, antagonist mode, RXRα; conditions: read-out: RXRα Potency IC50; antagonist potency in the presence of the known RXR agonist LGD1069; CV-1 cells
[6] = target: T2, RXRβ; test: RXR homodimer co-transfection assay, antagonist mode, RXRβ; conditions: read-out: RXRβ Potency IC50; antagonist potency in the presence of the known RXR agonist LGD1069; CV-1 cells
[7] = target: T3, RXRγ; test: RXR homodimer co-transfection assay, antagonist mode, RXRγ; conditions: read-out: RXRγ Potency IC50; antagonist potency in the presence of the known RXR agonist LGD1069; CV-1 cells
[8] = target: T5, RXRα:PPARα heterodimer (Homo sapiens, UniProt P19793); test: RXR heterodimer co-transfection assay (RXRα and PPARα, PPARα response element reporter); conditions: for Fold activation: normalized luciferase values at 10−5M divided by values with vehicle
T5 sequence (P19793 1-462): T1 sequence (P19793 1-462)
T5 sequence (Q07869 1-468 partner): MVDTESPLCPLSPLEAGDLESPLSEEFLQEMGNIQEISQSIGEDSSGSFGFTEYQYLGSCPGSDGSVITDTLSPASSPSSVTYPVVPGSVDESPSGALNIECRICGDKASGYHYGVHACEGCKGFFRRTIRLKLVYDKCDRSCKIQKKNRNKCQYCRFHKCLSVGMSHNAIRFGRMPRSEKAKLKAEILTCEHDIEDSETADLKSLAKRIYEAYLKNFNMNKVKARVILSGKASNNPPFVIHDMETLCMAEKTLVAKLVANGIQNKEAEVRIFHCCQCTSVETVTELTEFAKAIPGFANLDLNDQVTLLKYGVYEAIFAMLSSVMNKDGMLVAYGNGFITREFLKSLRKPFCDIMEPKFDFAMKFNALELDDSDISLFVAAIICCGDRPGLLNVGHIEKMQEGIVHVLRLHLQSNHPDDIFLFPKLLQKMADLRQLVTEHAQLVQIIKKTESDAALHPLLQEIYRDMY

[9] = test system: NB4 cells; test: NB4 myeloid leukemic cell differentiation; type: cell-based; conditions: Compound 122 1 mM, TTNPB, 9-cis retinoic acid, LG100268 100 nM, FIG. 3
Protocol: All points were performed in triplicate for each experiment and varied less than 20%. Each experiment was repeated at least three times with similar results.

[10] = target: T6, RXRα:RXRα homodimer (Homo sapiens, UniProt P19793); test: Gal4-receptor chimera transactivation assay, RXR homodimer; conditions: for Fold activation: CV-1 cells, 100 nM LG100268, LGD1069, n.e. = no effect; for Fold activation / Fold Repression: 500 nM Compounds 117, 122, 130, 1 mM Compound 131; for agonist activity on RXR homodimers in the GAL4 transfection assay (in words): compound alone; for antagonist activity on RXR homodimers in the GAL4 transfection assay (in words) / Fold Repression: in combination with either LGD1069 or LG100268
T6 sequence (P19793 227-458 limits assumed): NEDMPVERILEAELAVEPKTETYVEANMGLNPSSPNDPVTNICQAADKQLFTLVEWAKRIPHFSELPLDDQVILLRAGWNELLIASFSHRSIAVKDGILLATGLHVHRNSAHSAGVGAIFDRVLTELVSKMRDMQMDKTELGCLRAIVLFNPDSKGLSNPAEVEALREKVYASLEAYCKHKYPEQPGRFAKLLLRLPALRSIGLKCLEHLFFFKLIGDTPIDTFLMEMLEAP
Protocol: Briefly, CV-1 cells were transfected in 12 well multi-well plates using 0.1 μg of each receptor and 0.5 μg of reporter per well. Each well was also transfected with 0.5 μg of the β-Gal expression plasmid as an internal control for transfection efficiency. Total plasmid per well was 2 μg made up using the plasmid pGEM. […] Receptor ligand binding domains (LBDs) were fused in-frame downstream to the Gal4 cDNA to produce Gal4-receptor fusion proteins. To express only the receptor LBDs, the LBD was cloned directly downstream to the CMV promoter.
Cells were then washed 2X with PBS and lysed using Promega lysis buffer and assayed for luciferase activity and β-galactosidase activity. All results were normalized against β-Gal. Each set was done in triplicates and each experiment was carried out at least 3 separate times with similar results.

[11] = target: T7, RXRα:RARα heterodimer (Homo sapiens, UniProt P19793); test: Gal4-receptor chimera transactivation assay, RXRα:RARα heterodimer; conditions: for effect on RXRα:RARα heterodimer in combination with TTNPB (in words): combined with the RXR:RAR activator TTNPB, data not shown; for agonist activity on RXRα:RARα heterodimers (in words): compound alone
T7 sequence (P19793 227-458 limits assumed): T6 sequence (P19793 227-458 limits assumed)
T7 sequence (P10276 183-417 partner limits assumed): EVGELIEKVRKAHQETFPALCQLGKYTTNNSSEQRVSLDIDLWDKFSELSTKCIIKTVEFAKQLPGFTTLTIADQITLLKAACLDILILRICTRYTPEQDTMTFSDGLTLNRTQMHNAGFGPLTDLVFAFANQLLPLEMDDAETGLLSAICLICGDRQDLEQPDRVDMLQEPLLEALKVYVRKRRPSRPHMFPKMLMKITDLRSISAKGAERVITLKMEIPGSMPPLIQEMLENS

Row | Compound | Kd [1] | Kd [2] | Kd [3] | antagonism of RXR homodimer transactivation (in words) [4] | Fold activation [8] | differentiation of NB4 cells (in words) [9] | other results
1 | 4-[(3-hexyloxy-5,6,7,8-tetrahydro-5,5,8,8-tetramethyl-2-naphthyl)carbonyl]benzoic acid oxime [Compound 114] | 9 nM | 12 nM | 38 nM | function as antagonists | 4 fold | – | IC50 [5]: 126 nM; IC50 [6]: 197 nM; IC50 [7]: 206 nM; EC50 ([8]; read-out: EC50 (agonist potency), CV-1 cell transfected with both RXRα and PPARα): 200 nM
2 | CC1=C(/C=C/C(C)=C\C=C\C(C)=C\C(=O)O)C(C)(C)CCC1 [9-cis retinoic acid] | – | – | – | – | – | stimulate NB4 cells to differentiate | –
3 | C/C(=C/C=C/C(C)=C/C(=O)O)c1cc2c(cc1OCc1ccc(C)cc1)C(C)(C)CCC2(C)C [Compound 130, (2E, 4E, 6Z)-7-[3-(4-methylbenzyloxy)-5,6,7,8-tetrahydro-5,5,8,8-tetramethyl-2-naphthalen-2-yl]-3-methylocta-2,4,6-trienoic acid] | – | – | – | – | – | – | Fold activation [10]: n.e.; agonist activity on RXR homodimers in the GAL4 transfection assay (in words) [10]: inactive; antagonist activity on RXR homodimers in the GAL4 transfection assay (in words) [10]: strong antagonists; Fold Repression [10]: 25-75 fold; effect on RXRα:RARα heterodimer in combination with TTNPB (in words) [11]: slight increase in activation; agonist activity on RXRα:RARα heterodimers (in words) [11]: potent agonists
4 | CCCCCCCOc1c(\C(C)=C/C=C/C(C)=C/C(=O)O)cc(C(C)C)cc1C(C)C [Compound 147, (2E, 4E, 6Z)-7-(3,5-diisopropyl-2-n-heptyloxyphenyl)-3-methylocta-2,4,6-trienoic acid] | 3 nM | 8 nM | 6 nM | especially potent antagonist | – | – | –
5 | Cc1cc2c(cc1C1(c3ccc(C(=O)O)cn3)CC1)C(C)(C)CCC2(C)C [LG100268, 6-[1-(3,5,5,8,8-pentamethyl-5,6,7,8-tetrahydronaphthalen-2-yl)cyclopropyl]nicotinic acid] | – | – | – | – | – | does not promote NB4 differentiation | differentiation of NB4 cells (in words) ([9]; listed as LB100268): does not
6 | C/C(=C\c1ccc(C(=O)O)cc1)c1ccc2c(c1)C(C)(C)CCC2(C)C [TTNPB, (E)-4-[2-(5,6,7,8-tetrahydro-5,5,8,8-tetramethyl-2-naphthalenyl)-1-propenyl]benzoic acid] | – | – | – | – | – | stimulate NB4 cells to differentiate | –

Second part, led by results:

Row | Kd [1] | Kd [2] | Kd [3] | antagonism of RXR homodimer transactivation (in words) [4] | Fold activation [8] | Compound | differentiation of NB4 cells (in words) [9] | other results
7 | – | 29 nM | 33 nM | – | – | CCCOc1cc2c(cc1\C(C)=C/C=C/C(C)=C/C(=O)O)C(C)(C)CCC2(C)C [Compound 122, (2E, 4E, 6Z)-7-[3-propoxy-5,5,8,8-tetramethyl-5,6,7,8-tetrahydro-2-naphthalen-2-yl]-3-methylocta-2,4,6-trienoic acid] | stimulate NB4 cells to differentiate; also recorded: equally, if not more effective in promoting differentiation of NB4 cells | –
8 | 140 nM | 105 nM | 107 nM | function as antagonists | 7 fold | CC1(C)CCC(C)(C)c2cc3c(cc21)CCC=C3Cc1ccc(C(=O)O)cc1 [Compound 131, 4-(3,4,5,6,7,8-hexahydro-5,5,8,8-tetramethyl-anthracen-1-ylmethyl)benzoic acid] | – | Fold activation [10]: n.e.; agonist activity on RXR homodimers in the GAL4 transfection assay (in words) [10]: inactive; antagonist activity on RXR homodimers in the GAL4 transfection assay (in words) [10]: weak antagonist; Fold Repression [10]: 1.3 fold; effect on RXRα:RARα heterodimer in combination with TTNPB (in words) [11]: slight increase in activation; agonist activity on RXRα:RARα heterodimers (in words) [11]: potent agonists; EC50 [8]: 800 nM
9 | 163 nM | 155 nM | 181 nM | function as antagonists | 5 fold | CC1(C)CCC(C)(C)c2cc3c(cc21)CCCN3Cc1ccc(C(=O)O)cc1 [Compound 135, 4-(3,4,6,7,8,9-hexahydro-6,6,9,9-tetramethyl-2H-benzo[g]quinolin-1-ylmethyl)benzoic acid] | – | melting point: 173 to 175 °C
